In patent US20120214824A1, “PROTEOSTASIS REGULATORS” (priority 2010, published 2012):

Key:
firefly luciferase = experiment: Luciferase folding assay (Lucif.); assay type: cell-based, human; conditions: HeLa-luciferase cells; for Lucif. (luciferase activity induction): Table 1a; for Lucif (luciferase activity induction): Table 2a
Description: Firefly luciferase is a commonly used bioluminescent reporter. This monomeric enzyme of 61 kDa catalyzes a two-step oxidation reaction to yield light, usually in the green to yellow region, typically 550-570 nm. The first step of this reaction is activation of the luciferyl carboxylate by ATP to yield a reactive mixed anhydride. In the second step, the activated intermediate reacts with oxygen to create a transient dioxetane that breaks down to the oxidized products, oxyluciferin and CO2. Upon mixing with substrates, firefly luciferase produces an initial burst of light that decays over about 15 seconds to a low level of sustained luminescence. This kinetic profile reflects the slow release of the enzymatic product, thus limiting catalytic turnover after the initial reaction.
This mammalian cell based assay that used firefly luciferase as a sensor was used to screen for compounds that may modulate the cellular folding environment.
HeLa luciferase cell lines: Frozen bullets containing the cells were thawed briefly at 37° C. then placed into a T-150 flask containing 30-35 ml DMEM medium+Penicillin/Strep (1% final+10% FBS (final)+Geneticin @ 200-500 ug/ml. Cell cultures were maintained at 37° C. with 5% CO2 and water in the bottom of the incubator to keep cells healthy. Upon expanding cell line, luciferase measurements were taken to make sure that activity levels were between 2000-5000 (RLU) when plated at 15K/well in a 96-well format (Bright-Glo Promega) before compound treatment.
Compound treatment of HeLa-luciferase cells: HeLa-luciferase WT cells were plated in a 96-well format at 15K/well the day prior to performing compound treatment and/or luciferase assay. […] Final volume used per well was 90 uL. Flat bottom, white polystyrene plates were used for plating the cells.
For compound treatment, stocks of compounds were made up at 10 mM concentration in DMSO. Stocks compounds were diluted by 100× fold in the same media used for culturing the cells—this leads to a 0.1 mM (or 100 uM) concentration. After diluting the compound in media, 10 uL of the 100 uM solution was placed into each well of cells (90 uL); making the final concentration of the compound 10 uM. If serial dilutions of compounds were tested, serial dilutions of compounds were first made in DMSO accordingly, and further diluted in the media, prior to adding to cells. This procedure allowed for constant final levels of DMSO concentrations, regardless of initial compound concentration.
Performing luciferase activity assay: Bright-Glo Luciferase Assay Reagent (Promega cat #: E2610, E2620, E2650) was thawed out at RT in a water bath. Alternatively, Bright-Glo Luciferase assay buffer (prior to mixing with substrate) was stored overnight at RT, prior to using.
Following compound treatment, plates were removed from 37° C. and allowed to acclimate to RT for 5-10 min. Bright-Glo reagent was added to each cell-containing well in a 1:1 ratio (e.g., 100 uL of Bright Glo for each 100 uL cells).
Plates were placed on a plate shaker for 5 min, removing any air bubbles on the surface (which may interfere with proper reads), and then read on an EnVision 2104 Multilabel reader, Emission filter Luminescence 700, barcode 212, WL 400-700 nm.
Data for representative compounds in this assay are shown under the heading “Lucif.”

BCL2 = experiment: Multigene assay (QuantiGene Plex 2.0), mouse MEF cell line; assay type: cell-based; conditions: 6 hours post-compound treatment
Protocol: (§1) This assay used the QuantiGene Plex 2.0 Reagent System from Affymetrix. This assay combines the use of bDNA (branch DNA) and xMAP magnetic capture beads from Luminex Technologies to quantitatively and simultaneously detect multiple mRNA transcripts per well. The overall procedure was performed according to the QuantiGene Plex 2.0 Reagent System instruction manual from Affymetrix.
(§2) Cells were seeded at a density of 12,000 cells/well in 96-well plates with an overnight incubation at 37° C., 5% CO2. Cells were treated with serially diluted compounds in a 7-point dose dependent manner. Cell lysis with 50% [v/v] Panomics Lysis Mixture (Lysis Mixture+10 μl/ml 25 Proteinase K) was performed 6 hours post-compound treatment. Lysed cells were heated at 50° C. to ensure appropriate lysing and the plates were then frozen at −80° C. Cell lysates, thawed at room temperature on the day of the assay, were pooled with mouse 8-gene multiplex probe sets and with 8 different sets of magnetic capture beads (Luminex Technology, Austin, Tex.) in a 100 μl/well volume. Biomek FX was used at every liquid transfer step. The eight plates containing lysate-probe-bead mixtures were incubated at 54° C.±1° C. on a shaking platform for an overnight incubation in the dark (18-20 hours). The following day the hybridization plates were compressed by transferring the hybridized lysates into a single magnetic capture plate. The plate was kept on a magnet to hold the beads and then washed with Panomics Wash Buffer 2.0 on a BioTek ELx405 select plate washer to remove any unbound sample. This step was followed by serial hybridizations and washings of the bDNA pre-amplifier (1 hour, 50° C.), bDNA amplifier (1 hour, 50° C.), label probe (1 hour, 50° C.), and streptavidin-phycoerythrin (SAPE, 30 minutes, room temperature). (Zhang, A. et al. Small interfering RNA and gene expression analysis using a multiplex branched DNA assay without RNA purification. J Biomol Screen 10, 549-56 (2005)). The plate was then washed with SAPE wash buffer to remove unbound SAPE and each well was analyzed with the Luminex FlexMap3D (Luminex, Austin, Tex.). SAPE fluorescence measured from each bead was proportional to the number of mRNA transcripts captured by the beads (Zheng, Z., Luo, Y. & McMaster, G. K. Sensitive and quantitative measurement of gene expression directly from a small amount of whole blood. Clin Chem 52, 1294-302 (2006)). Fold changes in gene expression were obtained for each gene per well by normalizing the raw data first to the DMSO control and then to a housekeeping gene (TBP-TATA binding protein or Tub1-alpha-tubulin).

DDIT3 = experiment: as above; assay type: cell-based; conditions: 6 hours post-compound treatment
Protocol: as §1, §2

GCLM = experiment: as above; assay type: cell-based; conditions: 6 hours post-compound treatment
Protocol: as §1, §2

HMOX = experiment: as above; assay type: cell-based; conditions: 6 hours post-compound treatment
Protocol: as §1, §2

HSPA1a = experiment: as above; assay type: cell-based; conditions: 6 hours post-compound treatment
Protocol: as §1, §2

HspA5 = experiment: as above; assay type: cell-based; conditions: 6 hours post-compound treatment
Protocol: as §1, §2

TUB1 = experiment: as above; assay type: cell-based; conditions: 6 hours post-compound treatment
Protocol: as §1, §2

CC1=C(C#N)C(c2ccc(F)cc2)C2=C(CC(c3cccs3)CC2=O)N1 (stereo not shown) [drawing 26/Me/CN/p-F]
Lucif. (luciferase activity induction) (firefly luciferase): + (+ indicates a induction of greater than 2 fold)
BCL2 gene induction (BCL2; Table 1b): − (− Indicates less than 2 fold induction)
DDIT3 gene induction (DDIT3; Table 1a): − (− Indicates less than 2 fold induction)
GCLM gene induction (GCLM; Table 1a): − (− Indicates less than 2 fold induction)
HMOX gene induction (HMOX; Table 1b): − (− Indicates less than 2 fold induction)
HSPA1a gene induction (HSPA1a; Table 1b): − (− Indicates less than 2 fold induction)
HspA5 gene induction (HspA5; Table 1b): − (− Indicates less than 2 fold induction)
TUB1 gene induction (TUB1; Table 1a): − (− Indicates less than 2 fold induction)

CC1=C(C(=O)OCC(C)C)C(c2ccc(F)cc2)C2=C(CC(c3cccs3)CC2=O)N1 (stereo not shown) [drawing 26/Me/COOCH2CHMe2/p-F #1]
Lucif. (luciferase activity induction) (firefly luciferase): + (+ indicates a induction of greater than 2 fold)

CC1=C(C(=O)OCC(C)C)C(c2ccc(F)cc2)C2=C(CC(c3cccs3)CC2=O)N1 (stereo not shown) [drawing 26/Me/COOCH2CHMe2/p-F #2]
Lucif. (luciferase activity induction) (firefly luciferase): + (+ indicates a induction of greater than 2 fold)
BCL2 gene induction (BCL2; Table 1b): − (− Indicates less than 2 fold induction)
DDIT3 gene induction (DDIT3; Table 1a): + (+ indicates a induction of greater than 2 fold)
GCLM gene induction (GCLM; Table 1a): − (− Indicates less than 2 fold induction)
HMOX gene induction (HMOX; Table 1b): − (− Indicates less than 2 fold induction)
HSPA1a gene induction (HSPA1a; Table 1b): − (− Indicates less than 2 fold induction)
HspA5 gene induction (HspA5; Table 1b): − (− Indicates less than 2 fold induction)
TUB1 gene induction (TUB1; Table 1a): − (− Indicates less than 2 fold induction)

CC1=C(C#N)C(c2ccccc2OC(C)C)C2=C(CC(c3ccccc3)CC2=O)N1 (stereo not shown) [drawing 27/Me/CN/o-OCHMe2/H]
Lucif (luciferase activity induction) (firefly luciferase): + (+ indicates a induction of greater than 2 fold)
BCL2 gene induction (BCL2; Table 2b): − (− Indicates less than 2 fold induction)
DDIT3 gene induction (DDIT3; Table 2a): − (− Indicates less than 2 fold induction)
GCLM gene induction (GCLM; Table 2a): − (− Indicates less than 2 fold induction)
HMOX gene induction (HMOX; Table 2b): − (− Indicates less than 2 fold induction)
HSPA1a gene induction (HSPA1a; Table 2b): − (− Indicates less than 2 fold induction)
HspA5 gene induction (HspA5; Table 2b): − (− Indicates less than 2 fold induction)
TUB1 gene induction (TUB1; Table 2a): − (− Indicates less than 2 fold induction)

CC1=C(C#N)C(c2ccc(F)cc2)C2=C(CC(c3ccccc3)CC2=O)N1 (stereo not shown) [drawing 27/Me/CN/p-F/H]
Lucif (luciferase activity induction) (firefly luciferase): + (+ indicates a induction of greater than 2 fold)
BCL2 gene induction (BCL2; Table 2b): − (− Indicates less than 2 fold induction)
DDIT3 gene induction (DDIT3; Table 2a): + (+ indicates a induction of greater than 2 fold)
GCLM gene induction (GCLM; Table 2a): − (− Indicates less than 2 fold induction)
HMOX gene induction (HMOX; Table 2b): + (+ indicates a induction of greater than 2 fold)
HSPA1a gene induction (HSPA1a; Table 2b): − (− Indicates less than 2 fold induction)
HspA5 gene induction (HspA5; Table 2b): − (− Indicates less than 2 fold induction)
TUB1 gene induction (TUB1; Table 2a): − (− Indicates less than 2 fold induction)

CC1=C(C(=O)OCC(C)C)C(c2ccc(F)cc2)C2=C(CC(c3ccccc3)CC2=O)N1 (stereo not shown) [drawing 27/Me/COOCH2CHMe2/p-F/H]
Lucif (luciferase activity induction) (firefly luciferase): + (+ indicates a induction of greater than 2 fold)
BCL2 gene induction (BCL2; Table 2b): − (− Indicates less than 2 fold induction)
DDIT3 gene induction (DDIT3; Table 2a): − (− Indicates less than 2 fold induction)
GCLM gene induction (GCLM; Table 2a): − (− Indicates less than 2 fold induction)
HMOX gene induction (HMOX; Table 2b): − (− Indicates less than 2 fold induction)
HSPA1a gene induction (HSPA1a; Table 2b): − (− Indicates less than 2 fold induction)
HspA5 gene induction (HspA5; Table 2b): − (− Indicates less than 2 fold induction)
TUB1 gene induction (TUB1; Table 2a): − (− Indicates less than 2 fold induction)

CC(C)Oc1ccccc1C1C(C#N)=C(N)NC2=C1C(=O)CC(c1ccccc1)C2 (stereo not shown) [drawing 27/NH2/CN/o-OCHMe2/H]
Lucif (luciferase activity induction) (firefly luciferase): + (+ indicates a induction of greater than 2 fold)
BCL2 gene induction (BCL2; Table 2b): − (− Indicates less than 2 fold induction)
DDIT3 gene induction (DDIT3; Table 2a): + (+ indicates a induction of greater than 2 fold)
GCLM gene induction (GCLM; Table 2a): − (− Indicates less than 2 fold induction)
HMOX gene induction (HMOX; Table 2b): + (+ indicates a induction of greater than 2 fold)
HSPA1a gene induction (HSPA1a; Table 2b): + (+ indicates a induction of greater than 2 fold)
HspA5 gene induction (HspA5; Table 2b): − (− Indicates less than 2 fold induction)
TUB1 gene induction (TUB1; Table 2a): − (− Indicates less than 2 fold induction)

N#CC1=C(N)NC2=C(C(=O)CC(c3ccccc3)C2)C1c1ccc(F)cc1 (stereo not shown) [drawing 27/NH2/CN/p-F/H]
Lucif (luciferase activity induction) (firefly luciferase): + (+ indicates a induction of greater than 2 fold)
BCL2 gene induction (BCL2; Table 2b): − (− Indicates less than 2 fold induction)
DDIT3 gene induction (DDIT3; Table 2a): + (+ indicates a induction of greater than 2 fold)
GCLM gene induction (GCLM; Table 2a): − (− Indicates less than 2 fold induction)
HMOX gene induction (HMOX; Table 2b): − (− Indicates less than 2 fold induction)
HSPA1a gene induction (HSPA1a; Table 2b): + (+ indicates a induction of greater than 2 fold)
HspA5 gene induction (HspA5; Table 2b): − (− Indicates less than 2 fold induction)
TUB1 gene induction (TUB1; Table 2a): − (− Indicates less than 2 fold induction)

Cc1n[nH]c2c1C(c1cccs1)C(C#N)=C(N)O2 (stereo not shown) [drawing 29/Me/H/H/S]
BCL2 gene induction (BCL2; Table 4b): − (− Indicates less than 2 fold induction)
DDIT3 gene induction (DDIT3; Table 4a): − (− Indicates less than 2 fold induction)
GCLM gene induction (GCLM; Table 4a): + (+ indicates a induction of greater than 2 fold)
HMOX gene induction (HMOX; Table 4b): + (+ indicates a induction of greater than 2 fold)
HSPA1a gene induction (HSPA1a; Table 4b): − (− Indicates less than 2 fold induction)
HspA5 gene induction (HspA5; Table 4b): − (− Indicates less than 2 fold induction)
TUB1 gene induction (TUB1; Table 4a): − (− Indicates less than 2 fold induction)
